Residues, ends and D or L forms follow the SMILES beside them. *: point of attachment. Palmitoyl = CCCCCCCCCCCCCCCC(=O)*

This assay concerns the target T1, Gi-coupled receptor APJ (HEK cells stably expressing the APJ receptor) (Homo sapiens, UniProt P35414).
T1 construct: expressed in transfected cells; host or cells: HEK cells stably expressing APJ
T1 sequence (P35414 1-380): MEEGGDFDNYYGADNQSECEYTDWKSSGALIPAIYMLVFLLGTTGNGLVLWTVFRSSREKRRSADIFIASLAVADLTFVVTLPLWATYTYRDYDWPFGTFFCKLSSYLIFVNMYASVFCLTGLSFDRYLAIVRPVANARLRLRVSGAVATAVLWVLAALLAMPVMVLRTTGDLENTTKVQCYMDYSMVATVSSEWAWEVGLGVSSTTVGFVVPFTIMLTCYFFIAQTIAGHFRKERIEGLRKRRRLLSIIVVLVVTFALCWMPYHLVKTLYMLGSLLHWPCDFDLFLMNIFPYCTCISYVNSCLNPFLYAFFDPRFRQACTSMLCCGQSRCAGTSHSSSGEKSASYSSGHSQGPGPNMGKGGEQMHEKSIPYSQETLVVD
The experiment in a line: HTRF cAMP assay: inhibition of NKH477 stimulated increase in cAMP. To be noted: read-out: EC50 value (nM), SEM. In kind it is cell-based. An excerpt: HTRF (homogeneous time resolved fluorescence) is a technology developed by Cisbio Bioassays based on TR-FRET (time-resolved fluorescence resonance energy transfer). Cisbio Bioassays has developed a wide selection of HTRF-based assays compatible with whole cells, thereby enabling functional assays to run under more physiological conditions. The IP-One assays are competitive immunoassays using cryptate-labeled anti-IPI monoclonal antibody and d2-labeled IP1. IP1 is a relatively stable downstream metabolite of IP3, and accumulates in cells following Gq receptor activation.
cAMP kits based on a competitive immunoassay using cryptate-labeled anti-cAMP antibody and d2-labeled cAMP were used to assay the effects of APJ compounds of the present invention. This assay measures the increase in intracellular cAMP upon Gs-coupled receptor activation as well as decrease in forskolin (or a more soluble version of forskolin—NKH477) stimulated increase in cAMP upon Gi-coupled receptor activation.
The EC50 is the concentration that produces a half-maximal response. Consider `CCCCCCCCCCCCCCCC(=O)N[C@@H](Cc1ccccc1)C(=O)N[C@@H](CCCNC(=N)N)C(=O)N[C@@H](CO)C(=O)N[C@@H](CO)C(=O)N[C@@H](CCCNC(=N)N)C(=O)N[C@@H](CCC(=O)O)C(=O)N[C@@H](CCCCN)C(=O)N[C@@H](CCCNC(=N)N)C(=O)N[C@@H](CCCNC(=N)N)C(=O)N[C@@H](CO)C(=O)N[C@@H](C)C(=O)N[C@@H](CC(=O)O)C(=O)N[C@H](C(=O)N[C@@H](Cc1ccccc1)C(=O)N[C@H](C(N)=O)[C@@H](C)CC)[C@@H](C)CC` [Compound 11] (Palmitoyl-FRSSREKRRSADIFI-NH2), for which the EC50 was in the range of 1 to 500 nM. For the compound `CCCCCCCCCCCCCCCC(=O)N[C@H](C(=O)N[C@@H](C)C(=O)N[C@@H](Cc1ccccc1)C(=O)N[C@@H](CCCNC(=N)N)C(=O)N[C@@H](CO)C(=O)N[C@@H](CO)C(=O)N[C@@H](CCCNC(=N)N)C(=O)N[C@@H](CCC(=O)O)C(=O)N[C@@H](CCCCN)C(=O)N[C@@H](CCCNC(=N)N)C(=O)N[C@@H](CCCNC(=N)N)C(=O)N[C@@H](CO)C(=O)N[C@@H](C)C(=O)N[C@@H](CC(=O)O)C(=O)N[C@H](C(=O)N[C@@H](Cc1ccccc1)C(=O)N[C@H](C(N)=O)[C@@H](C)CC)[C@@H](C)CC)[C@@H](C)O` [Compound 22] (Palmitoyl-TAFRSSREKRRSADIFI-NH2), the EC50 was 1 to 500 nM. Then `CCCCCCCCCCCCCCCC(=O)N[C@H](C(=O)N[C@H](C(=O)N[C@@H](Cc1ccccc1)C(=O)N[C@@H](C)C(=O)N[C@@H](CO)C(=O)N[C@@H](CO)C(=O)N[C@@H](CCCNC(=N)N)C(=O)N[C@@H](CCC(=O)O)C(=O)N[C@@H](CCCCN)C(=O)N[C@@H](CCCNC(=N)N)C(=O)N[C@@H](CCCNC(=N)N)C(=O)N[C@@H](CO)C(=O)N[C@@H](C)C(=O)N[C@@H](CC(=O)O)C(=O)N[C@H](C(=O)N[C@@H](Cc1ccccc1)C(=O)N[C@H](C(N)=O)[C@@H](C)CC)[C@@H](C)CC)C(C)C)[C@@H](C)O` [Compound 24] (Palmitoyl-TVFASSREKRRSADIFI-NH2), with 1000 to 5000 nM; and `CCCCCCCCCCCCCCCC(=O)N[C@H](C(=O)N[C@@H](CO)C(=O)N[C@@H](CO)C(=O)N[C@@H](CCCNC(=N)N)C(=O)N[C@@H](CCC(=O)O)C(=O)N[C@@H](CCCCN)C(=O)N[C@@H](CCCNC(=N)N)C(=O)N[C@@H](CCCNC(=N)N)C(=O)N[C@@H](CO)C(=O)N[C@@H](C)C(=O)N[C@@H](CC(=O)O)C(=O)N[C@H](C(=O)N[C@@H](Cc1ccccc1)C(=O)N[C@H](C(N)=O)[C@@H](C)CC)[C@@H](C)CC)C(C)C` [Compound 25] (Palmitoyl-VSSREKRRSADIFI-NH2), with 1000 to 5000 nM. The value for `CCCCCCCCCCCCCCCC(=O)N[C@H](C(=O)N[C@H](C(=O)N[C@@H](Cc1ccccc1)C(=O)N[C@@H](CCCNC(=N)N)C(=O)N[C@@H](C)C(=O)N[C@@H](CO)C(=O)N[C@@H](CCCNC(=N)N)C(=O)N[C@@H](CCC(=O)O)C(=O)N[C@@H](CCCCN)C(=O)N[C@@H](CCCNC(=N)N)C(=O)N[C@@H](CCCNC(=N)N)C(=O)N[C@@H](CO)C(=O)N[C@@H](C)C(=O)N[C@@H](CC(=O)O)C(=O)N[C@H](C(=O)N[C@@H](Cc1ccccc1)C(=O)N[C@H](C(N)=O)[C@@H](C)CC)[C@@H](C)CC)C(C)C)[C@@H](C)O` [Compound 27] (Palmitoyl-TVFRASREKRRSADIFI-NH2) was 501 to 1000 nM. Then `CCCCCCCCCCCCCCCC(=O)N[C@H](C(=O)N[C@H](C(=O)N[C@@H](Cc1ccccc1)C(=O)N[C@@H](CCCNC(=N)N)C(=O)N[C@@H](CO)C(=O)N[C@@H](C)C(=O)N[C@@H](CCCNC(=N)N)C(=O)N[C@@H](CCC(=O)O)C(=O)N[C@@H](CCCCN)C(=O)N[C@@H](CCCNC(=N)N)C(=O)N[C@@H](CCCNC(=N)N)C(=O)N[C@@H](CO)C(=O)N[C@@H](C)C(=O)N[C@@H](CC(=O)O)C(=O)N[C@H](C(=O)N[C@@H](Cc1ccccc1)C(=O)N[C@H](C(N)=O)[C@@H](C)CC)[C@@H](C)CC)C(C)C)[C@@H](C)O` [Compound 28] (Palmitoyl-TVFRSAREKRRSADIFI-NH2), with 1 to 500 nM; and `CCCCCCCCCCCCCCCC(=O)N[C@H](C(=O)N[C@H](C(=O)N[C@@H](Cc1ccccc1)C(=O)N[C@@H](CCCNC(=N)N)C(=O)N[C@@H](CO)C(=O)N[C@@H](CO)C(=O)N[C@@H](CCCNC(=N)N)C(=O)N[C@@H](CCC(=O)O)C(=O)N[C@@H](CCCCN)C(=O)N[C@@H](CCCNC(=N)N)C(=O)N[C@@H](CCCNC(=N)N)C(=O)N[C@@H](C)C(=O)N[C@@H](C)C(=O)N[C@@H](CC(=O)O)C(=O)N[C@H](C(=O)N[C@@H](Cc1ccccc1)C(=O)N[C@H](C(N)=O)[C@@H](C)CC)[C@@H](C)CC)C(C)C)[C@@H](C)O` [Compound 32] (Palmitoyl-TVFRSSREKRRAADIFI-NH2), with 1 to 500 nM; and `CCCCCCCCCCCCCCCC(=O)N[C@@H](CO)C(=O)N[C@@H](CO)C(=O)N[C@@H](CCCNC(=N)N)C(=O)N[C@@H](CCC(=O)O)C(=O)N[C@@H](CCCCN)C(=O)N[C@@H](CCCNC(=N)N)C(=O)N[C@@H](CCCNC(=N)N)C(=O)N[C@@H](CO)C(=O)N[C@@H](C)C(=O)N[C@@H](CC(=O)O)C(=O)N[C@H](C(=O)N[C@@H](Cc1ccccc1)C(=O)N[C@H](C(=O)N[C@@H](C)C(N)=O)[C@@H](C)CC)[C@@H](C)CC` [Compound 33] (Palmitoyl-SSREKRRSADIFIA-NH2), with more than 10000 nM.

As to `CCCCCCCCCCCCCCCC(=O)N[C@H](C(=O)N[C@H](C(=O)N[C@@H](Cc1ccccc1)C(=O)N[C@@H](Cc1c[nH]c2ccccc12)C(=O)N[C@@H](CO)C(=O)N[C@@H](CO)C(=O)N[C@@H](CCCNC(=N)N)C(=O)N[C@@H](CCC(=O)O)C(=O)N[C@@H](CCCCN)C(=O)N[C@@H](CCCNC(=N)N)C(=O)N[C@@H](CCCNC(=N)N)C(=O)N[C@@H](CO)C(=O)N[C@@H](C)C(=O)N[C@@H](CC(=O)O)C(=O)N[C@H](C(=O)N[C@@H](Cc1ccccc1)C(=O)N[C@H](C(N)=O)[C@@H](C)CC)[C@@H](C)CC)C(C)C)[C@@H](C)O` [Compound 36] (Palmitoyl-TVFWSSREKRRSADIFI-NH2), the EC50 was in the range of 1000 to 5000 nM. The value for `CCCCCCCCCCCCCCCC(=O)N[C@H](C(=O)N[C@H](C(=O)N[C@@H](Cc1ccccc1)C(=O)N[C@@H](CCCNC(=N)N)C(=O)N[C@@H](CO)C(=O)N[C@@H](CO)C(=O)N[C@@H](CCCNC(=N)N)C(=O)N[C@@H](CCC(=O)O)C(=O)N[C@@H](CCCCN)C(=O)N[C@@H](CCCNC(=N)N)C(=O)N[C@@H](CCCNC(=N)N)C(=O)N[C@@H](CO)C(=O)N[C@@H](C)C(=O)N[C@@H](CC(=O)O)C(=O)N[C@H](C(=O)N[C@@H](C)C(=O)N[C@H](C(N)=O)[C@@H](C)CC)[C@@H](C)CC)C(C)C)[C@@H](C)O` [Compound 39] (Palmitoyl-TVFRSSREKRRSADIAI-NH2) was 1 to 500 nM; that for `CCCCCCCCCCCCCCCC(=O)N[C@H](C(=O)N[C@H](C(=O)N[C@@H](Cc1ccccc1)C(=O)N[C@@H](CCCNC(=N)N)C(=O)N[C@@H](CO)C(=O)N[C@@H](CO)C(=O)N[C@@H](CCCNC(=N)N)C(=O)N[C@@H](CCC(=O)O)C(=O)N[C@@H](CCCCN)C(=O)N[C@@H](CCCNC(=N)N)C(=O)N[C@@H](CCCNC(=N)N)C(=O)N[C@@H](CO)C(=O)N[C@@H](C)C(=O)N[C@@H](CC(=O)O)C(=O)N[C@H](C(=O)N[C@@H](Cc1ccccc1)C(=O)N[C@@H](C)C(N)=O)[C@@H](C)CC)C(C)C)[C@@H](C)O` [Compound 40] (Palmitoyl-TVFRSSREKRRSADIFA-NH2) was 501 to 1000 nM; that for `CCCCCCCCCCCCCCCC(=O)N[C@H](C(=O)N[C@H](C(=O)N[C@@H](Cc1ccccc1)C(=O)N[C@@H](CCCNC(=N)N)C(=O)N[C@@H](CO)C(=O)N[C@@H](CO)C(=O)N[C@@H](CCCNC(=N)N)C(=O)N[C@@H](C)C(=O)N[C@@H](CCCCN)C(=O)N[C@@H](CCCNC(=N)N)C(=O)N[C@@H](CCCNC(=N)N)C(=O)N[C@@H](CO)C(=O)N[C@@H](C)C(=O)N[C@@H](CC(=O)O)C(=O)N[C@H](C(=O)N[C@@H](Cc1ccccc1)C(=O)N[C@H](C(N)=O)[C@@H](C)CC)[C@@H](C)CC)C(C)C)[C@@H](C)O` [Compound 41] (Palmitoyl-TVFRSSRAKRRSADIFI-NH2) was 1 to 500 nM. Regarding `CCCCCCCCCCCCCCCC(=O)N[C@H](C(=O)N[C@H](C(=O)N[C@@H](Cc1ccccc1)C(=O)N[C@@H](CCCNC(=N)N)C(=O)N[C@@H](CO)C(=O)N[C@@H](CO)C(=O)N[C@@H](CCCNC(=N)N)C(=O)N[C@@H](CCC(=O)O)C(=O)N[C@@H](CCCCN)C(=O)N[C@@H](CCCNC(=N)N)C(=O)N[C@@H](CCCNC(=N)N)C(=O)N[C@@H](CO)C(=O)N[C@@H](C)C(=O)N[C@@H](CC(=O)O)C(=O)N[C@H](C(=O)N[C@@H](Cc1ccccc1)C(=O)N[C@H](C(=O)O)[C@@H](C)CC)[C@@H](C)CC)C(C)C)[C@@H](C)O` [Compound 42] (Palmitoyl-TVFRSSREKRRSADIFI-OH), the EC50 is 1000 to 5000 nM.

(Values after patent US20120028888A1, “APJ RECEPTOR COMPOUNDS” (priority 2008, published 2012).)
